Results on six compounds are retold here after PubChem BioAssay (NCI).

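Results reflect a 48-hour exposure of cells in 96-well plates to compound at five concentrations. GI50 = concentration required for 50% inhibition of growth. TGI marks complete inhibition of growth.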

Among the test systems are MOLT-4 leukemia; HOP-92 NSCLC; HCT-116 colon; NCI-H23 lung; LOX IMVI melanoma; SNB-75 CNS; MDA-MB-231 breast; 786-0 renal; UO-31 renal; SK-MEL-28 melanoma.
Common to all, as to assay: inhibition of tumour cell growth, NCI panel, 48 h

`CC#C[C@]1(O)CC[C@H]2[C@@H]3CCC4=CC(=O)CCC4=C3[C@@H](c3ccc4c(c3)OCO4)C[C@@]21C`: the GI50 was 49.5 µM in the experiment with MOLT-4 leukemia; 17.7 µM with HOP-92 NSCLC; 31.2 µM in the experiment on HCT-116 colon; 152 µM in the experiment with NCI-H23 lung; 113 µM in the experiment with LOX IMVI melanoma; 42.8 µM in the experiment with SNB-75 CNS. In addition, the GI50 is 90.1 µM in the experiment with MDA-MB-231 breast, 35.8 µM in the experiment on 786-0 renal, 49.6 µM with UO-31 renal and 85.8 µM with SK-MEL-28 melanoma. In addition, the TGI is greater than 1000 µM in the experiment with MOLT-4 leukemia; 131 µM with HOP-92 NSCLC; 126 µM with HCT-116 colon; greater than 1000 µM with NCI-H23 lung; 253 µM in the experiment on LOX IMVI melanoma; 521 µM in the experiment on SNB-75 CNS. The TGI with MDA-MB-231 breast is 327 µM; with 786-0 renal, 324 µM; in the experiment on UO-31 renal, 218 µM; in the experiment on SK-MEL-28 melanoma it was 276 µM.
`O=c1cc(-c2ccccc2)[nH]c2ccccc12`: the GI50 was 0.703 µM with MOLT-4 leukemia; 0.571 µM in the experiment with HOP-92 NSCLC; 0.547 µM in the experiment on HCT-116 colon; 1.16 µM in the experiment on NCI-H23 lung; 2.72 µM in the experiment on LOX IMVI melanoma; 0.542 µM in the experiment on SNB-75 CNS. In addition, the values for the GI50 with MDA-MB-231 breast, in the experiment with 786-0 renal and with UO-31 renal were 4.09 µM, 2.81 µM and 3.28 µM, respectively. The TGI with MOLT-4 leukemia, in the experiment with HOP-92 NSCLC, in the experiment on HCT-116 colon, in the experiment with NCI-H23 lung, in the experiment on LOX IMVI melanoma and with SNB-75 CNS was greater than 100 µM each time. The TGI in the experiment with MDA-MB-231 breast was greater than 62.1 µM; with 786-0 renal, greater than 100 µM; in the experiment with UO-31 renal, greater than 100 µM; with SK-MEL-28 melanoma it was greater than 100 µM.
For the compound `Cc1ccc(-c2cn3ccnc3c(-c3ccc(Cl)cc3)n2)cc1`, the GI50 in the experiment with MOLT-4 leukemia is 0.0815 µM; in the experiment on HOP-92 NSCLC, 12.5 µM; with HCT-116 colon, 0.292 µM; with NCI-H23 lung, 0.433 µM; in the experiment with LOX IMVI melanoma, 0.384 µM; in the experiment on SNB-75 CNS, 0.465 µM. The GI50 in the experiment on MDA-MB-231 breast was 0.506 µM; in the experiment with 786-0 renal it was 0.966 µM; with SK-MEL-28 melanoma it was 0.518 µM. Also, the TGI is greater than 100 µM in the experiment with MOLT-4 leukemia; greater than 93.2 µM in the experiment with HOP-92 NSCLC; greater than 33.8 µM with HCT-116 colon; 27.6 µM with NCI-H23 lung; 12.4 µM in the experiment on LOX IMVI melanoma; 24.5 µM with SNB-75 CNS. The TGI with MDA-MB-231 breast was 50.1 µM; in the experiment on 786-0 renal it was greater than 59.8 µM; with UO-31 renal it was greater than 100 µM; with SK-MEL-28 melanoma, 44 µM.
On to `COc1ccc2sc3c(NCCCN(C)C)nc4ccccc4c3c(=O)c2c1`, for which the GI50 was 1.71 µM in the experiment on MOLT-4 leukemia; 1.03 µM in the experiment on HOP-92 NSCLC; 1.57 µM in the experiment on HCT-116 colon; 1.59 µM in the experiment with NCI-H23 lung; 1.48 µM in the experiment on LOX IMVI melanoma; 1.42 µM with SNB-75 CNS. In addition, the GI50 with MDA-MB-231 breast is 1.38 µM; in the experiment on 786-0 renal, 1.34 µM; with UO-31 renal it was 1.47 µM; with SK-MEL-28 melanoma, 1.78 µM. For the same compound, the TGI came out at 3.56 µM in the experiment with MOLT-4 leukemia; 2.47 µM with HOP-92 NSCLC; 3.01 µM with HCT-116 colon; 3.06 µM in the experiment with NCI-H23 lung; 2.89 µM in the experiment on LOX IMVI melanoma; 2.8 µM in the experiment with SNB-75 CNS. In addition, the TGI worked out at 2.8 µM in the experiment with MDA-MB-231 breast, 2.71 µM in the experiment with 786-0 renal, 2.84 µM in the experiment on UO-31 renal and 3.2 µM with SK-MEL-28 melanoma.
For the compound `CC(CCC(=O)O)[C@H]1CCC2[C@@H]3CC[C@@H]4CC(O)CC[C@]4(C)C3CC[C@@]21C` (stereo partly drawn), the GI50 is 22 µM with MOLT-4 leukemia; 28 µM in the experiment on HOP-92 NSCLC; 30.4 µM in the experiment with HCT-116 colon; 15.6 µM in the experiment with NCI-H23 lung; 29.5 µM with LOX IMVI melanoma; 66.1 µM in the experiment on SNB-75 CNS. In addition, the GI50 was 58.7 µM in the experiment with MDA-MB-231 breast, 49.3 µM with 786-0 renal, 22.1 µM with UO-31 renal and 54.4 µM in the experiment on SK-MEL-28 melanoma. The TGI is 79 µM in the experiment on MOLT-4 leukemia; 87.9 µM in the experiment on HOP-92 NSCLC; greater than 100 µM in the experiment with HCT-116 colon; 37.9 µM with NCI-H23 lung; greater than 100 µM with LOX IMVI melanoma; greater than 100 µM in the experiment on SNB-75 CNS. In addition, the TGI in the experiment with MDA-MB-231 breast is greater than 100 µM; with 786-0 renal, greater than 100 µM; in the experiment on UO-31 renal, 67.3 µM; in the experiment on SK-MEL-28 melanoma, greater than 100 µM.
With `COc1cc2c(c(OC)c1)C1c3ccccc3NC(=O)N1CC2` (stereo not drawn), the GI50 in the experiment on MOLT-4 leukemia is 3.99 µM; with HOP-92 NSCLC, 7.25 µM; with HCT-116 colon it was 3.69 µM; with NCI-H23 lung it was 3.69 µM; in the experiment with LOX IMVI melanoma, 5.58 µM; in the experiment with SNB-75 CNS it was 2.69 µM. Moreover, the GI50 is 3.98 µM in the experiment on MDA-MB-231 breast, 4.63 µM in the experiment on 786-0 renal, 2.81 µM in the experiment with UO-31 renal and 9.41 µM with SK-MEL-28 melanoma. The TGI with MOLT-4 leukemia, with HOP-92 NSCLC, in the experiment on HCT-116 colon, in the experiment on NCI-H23 lung, with LOX IMVI melanoma and with SNB-75 CNS was greater than 100 µM each time. Also, the TGI is greater than 100 µM in the experiment with MDA-MB-231 breast, greater than 100 µM in the experiment on 786-0 renal, 85.4 µM in the experiment on UO-31 renal and 28.5 µM in the experiment with SK-MEL-28 melanoma.
